From patent US10363252B2, “Treatment of prostate cancer using hedgehog pathway inhibitors” (HEDGEPATH PHARMACEUTICALS, INC., priority 2013, dated 2019)

Tests used:
[1] = plasma trough level of itraconazole required for clinical benefit in humans with cancer; type: in vivo, human
Protocol: In particular, the minimum plasma trough level after 4 weeks of therapy required to have a clinically significant effect was at least 1000 ng/ml. Achieving these levels of itraconazole is enhanced by the use of formulations with greater bioavailability such as SUBA-CAP™ formulation. […] These side effects associated with these high doses of itraconazole can be effectively managed by giving a selective mineralocorticoid antagonist, such as eplerenone. Accordingly, in some embodiments, the method further comprises administering eplerenone or other mineralocorticoid inhibitor.

HhP = details: major metabolite of itraconazole; cited from earlier work

Row | Compound | side-effects peculiar to high doses ([1]; high doses of itraconazole) | concentration at 4 weeks ([1]; human, plasma, after 4 weeks of therapy, humans with cancer, read-out: minimum plasma trough level required to have a clinically significant effect) [ng/mL] | potency as a HhP inhibitor relative to itraconazole (HhP)
1 | CCC(C)n1ncn(-c2ccc(N3CCN(c4ccc(OCC5COC(Cn6cncn6)(c6ccc(Cl)cc6Cl)O5)cc4)CC3)cc2)c1=O (stereo not drawn) [itraconazole] | hypertension, peripheral edema, and hypokalemia | ≥ 1000 | 
2 | hydroxy-itraconazole |  |  | not equipotent
